Measurements: ChEMBL document CHEMBL5335815, “The Greater Celandine: Identification and Characterization of an Antimicrobial Peptide from Chelidonium majus” (J Nat Prod, 2024)
The source made the active and inactive calls. No cut-off for these calls is given here. Bridge positions count the residues as written; N and C are the ends. Peptide text beside a SMILES is read from it.

How the values were obtained:
[1] = system: Proteinase K (Engyodontium album); assay: Inhibition of proteinase K (Engyodontium album)
[2] = Proteolytic stability assessed as proteinase K (unknown origin)-mediated compound degradation in presence of reduced and alkylated cysteines measured after 10 mins by LC-MS analysis; assay type: ADME
[3] = Proteolytic stability assessed as proteinase K (unknown origin) mediated compound degradation incubated for 10 mins by LC-MS analysis; assay type: ADME; conditions: human
Escherichia coli = assay: Induction of BasS protein expression in Escherichia coli assessed as fold increase at 5 microg/ml; assay type: functional; conditions: dose 5.0 µg/ml

CC[C@H](C)[C@@H]1NC(=O)[C@H](Cc2ccccc2)NC(=O)[C@H](Cc2ccccc2)NC(=O)[C@H](CCCNC(=N)N)NC(=O)[C@H](CCCNC(=N)N)NC(=O)[C@H](CCCCN)NC(=O)[C@H](CCCCN)NC(=O)[C@H](CC(=O)O)NC(=O)[C@H](C(C)C)NC(=O)[C@H](CO)NC(=O)[C@H](CCCCN)NC(=O)[C@@H]2CSSC[C@@H](C(=O)N[C@@H](CC(N)=O)C(=O)O)NC(=O)[C@@H]3CSSC[C@H](N)C(=O)NCC(=O)N[C@@H](CSSC[C@H](NC(=O)[C@H]([C@@H](C)O)NC(=O)[C@@H]4CCCN4C1=O)C(=O)N[C@@H](CC(C)C)C(=O)N[C@@H](CCCNC(=N)N)C(=O)N[C@@H](CO)C(=O)N3)C(=O)N[C@@H](Cc1ccc(O)cc1)C(=O)N2 (H-CGCYCKSVDKKRRFFIPTCLRSCCN-OH; disulfide 1-23, 3-19, 5-24)
inhibition [1]: inactive
Stability [2]: Unstable
Stability [3]: Stable

CC[C@H](C)[C@H](NC(=O)[C@H](Cc1ccccc1)NC(=O)[C@H](Cc1ccccc1)NC(=O)[C@H](CCCNC(=N)N)NC(=O)[C@H](CCCNC(=N)N)NC(=O)[C@H](CCCCN)NC(=O)[C@H](CCCCN)NC(=O)[C@H](CC(=O)O)NC(=O)[C@@H](NC(=O)[C@H](CO)NC(=O)[C@H](CCCCN)NC(=O)[C@H](CS)NC(=O)[C@H](Cc1ccc(O)cc1)NC(=O)[C@H](CS)NC(=O)CNC(=O)[C@@H](N)CS)C(C)C)C(=O)N1CCC[C@H]1C(=O)N[C@H](C(=O)N[C@@H](CS)C(=O)N[C@@H](CC(C)C)C(=O)N[C@@H](CCCNC(=N)N)C(=O)N[C@@H](CO)C(=O)N[C@@H](CS)C(=O)N[C@@H](CS)C(=O)N[C@@H](CC(N)=O)C(=O)O)[C@@H](C)O (H-CGCYCKSVDKKRRFFIPTCLRSCCN-OH)
fold change (FC) (Escherichia coli): 83.8
